Laboratory results as given in PubChem BioAssay (NCI).
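Each compound was tested at five concentrations against cells in 96-well plates for 48 hours. GI50 is the concentration that inhibits growth by half. TGI: total growth inhibition.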

Columns and labels:
Assay in all cases: NCI tumour cell line growth inhibition, 48 h
[1] = test system: DU-145 prostate
[2] = test system: HS 578T breast
[3] = test system: NCI-H23 lung
[4] = test system: K-562 leukemia
[5] = test system: TK-10 renal
[6] = test system: HOP-92 NSCLC
[7] = test system: UACC-62 melanoma
[8] = test system: SR leukemia
[9] = test system: LOX IMVI melanoma
[10] = test system: BT-549 breast
[11] = test system: MOLT-4 leukemia
[12] = test system: SW-620 colon
[13] = test system: SNB-19 CNS
[14] = test system: OVCAR-4 ovarian
[15] = test system: SNB-75 CNS
[16] = test system: T-47D breast
[17] = test system: NCI-H522 lung
[18] = test system: CCRF-CEM leukemia
[19] = test system: HCC-2998 colon
[20] = test system: SK-MEL-2 melanoma
[21] = test system: HCT-116 colon
[22] = test system: OVCAR-8 ovarian
[23] = test system: 786-0 renal
[24] = test system: HT29 colon
[25] = test system: MALME-3M melanoma
[26] = test system: A498 renal
[27] = test system: SF-268 CNS
[28] = test system: UACC-257 melanoma
[29] = test system: SK-OV-3 ovarian
[30] = test system: KM12 colon
[31] = test system: MCF7 breast
[32] = test system: SK-MEL-28 melanoma
[33] = test system: SF-539 CNS
[34] = test system: NCI-H460 lung
[35] = test system: UO-31 renal
[36] = test system: COLO 205 colon
[37] = test system: OVCAR-5 ovarian
[38] = test system: EKVX NSCLC
[39] = test system: CAKI-1 renal
[40] = test system: MDA-MB-435
[41] = test system: PC-3 prostate
[42] = test system: HOP-62 NSCLC
[43] = test system: SF-295 CNS
[44] = test system: HCT-15 colon
[45] = test system: SK-MEL-5 melanoma
[46] = test system: NCI-H226 lung
[47] = test system: RPMI-8226 leukemia
[48] = test system: HL-60(TB) leukemia
[49] = test system: SN12C renal
[50] = test system: U251 CNS
[51] = test system: NCI/ADR-RES ovarian
[52] = test system: ACHN renal
[53] = test system: OVCAR-3 ovarian
[54] = test system: RXF 393 renal
[55] = test system: M14 melanoma
[56] = test system: A549 NSCLC
[57] = test system: IGROV1 ovarian
[58] = test system: MDA-MB-231 breast

Compound `CCCCCCCC(=O)SCC/C=C/[C@@H]1CC(=O)NCc2cccc(n2)CN(Cc2ccc3ccccc3c2)CC(=O)N[C@@H](C(C)C)C(=O)O1` has a GI50 [1] of 94.1 µM, a TGI [1] greater than 100 µM and a GI50 [2] of 46 µM. It also gave a TGI [2] greater than 100 µM, a GI50 [3] greater than 100 µM and a TGI [3] greater than 100 µM. It also gave a GI50 [4] of 59.4 µM, a TGI [4] greater than 100 µM and a GI50 [5] of 18.2 µM. It also gave a TGI [5] greater than 100 µM, a GI50 [6] of 56.2 µM and a TGI [6] greater than 100 µM. It also gave a GI50 [7] of 51.6 µM, a TGI [7] greater than 100 µM and a GI50 [8] of 22.9 µM. For the same compound, the TGI [8] was greater than 100 µM, the GI50 [9] was 35.1 µM and the TGI [9] was greater than 100 µM. For the same compound, the GI50 [10] was greater than 100 µM, the TGI [10] was greater than 100 µM and the GI50 [11] was 30.9 µM. The TGI [11] was greater than 100 µM, the GI50 [12] was greater than 100 µM and the TGI [12] was greater than 100 µM. For the same compound, the GI50 [13] was greater than 100 µM, the TGI [13] was greater than 100 µM and the GI50 [14] was greater than 100 µM. For the same compound, the TGI [14] was greater than 100 µM, the GI50 [15] was 27.9 µM and the TGI [15] was greater than 100 µM. It also gave a GI50 [16] greater than 100 µM, a TGI [16] greater than 100 µM and a GI50 [17] of 84.3 µM. For the same compound, the TGI [17] was greater than 100 µM, the GI50 [18] was 37.9 µM and the TGI [18] was greater than 100 µM. For the same compound, the GI50 [19] was greater than 100 µM, the TGI [19] was greater than 100 µM and the GI50 [20] was 92.4 µM. It also gave a TGI [20] greater than 100 µM, a GI50 [21] of 26.5 µM and a TGI [21] greater than 100 µM. For the same compound, the GI50 [22] was 87 µM, the TGI [22] was greater than 100 µM and the GI50 [23] was greater than 100 µM. The TGI [23] was greater than 100 µM, the GI50 [24] was 32.2 µM and the TGI [24] was greater than 100 µM. For the same compound, the GI50 [25] was 23.8 µM, the TGI [25] was greater than 100 µM and the GI50 [26] was 29.5 µM. The TGI [26] was 88.3 µM, the GI50 [27] was 93.8 µM and the TGI [27] was greater than 100 µM. It also gave a GI50 [28] of 88.9 µM, a TGI [28] greater than 100 µM and a GI50 [29] of 40 µM. For the same compound, the TGI [29] was greater than 100 µM, the GI50 [30] was 42.3 µM and the TGI [30] was greater than 100 µM. It also gave a GI50 [31] of 40 µM, a TGI [31] greater than 100 µM and a GI50 [32] of 47 µM. It also gave a TGI [32] greater than 100 µM, a GI50 [33] greater than 100 µM and a TGI [33] greater than 100 µM. The GI50 [34] was 43.9 µM, the TGI [34] was greater than 100 µM and the GI50 [35] was 50 µM. For the same compound, the TGI [35] was greater than 100 µM, the GI50 [36] was 61.6 µM and the TGI [36] was greater than 100 µM. It also gave a GI50 [37] greater than 100 µM, a TGI [37] greater than 100 µM and a GI50 [38] greater than 100 µM. The TGI [38] was greater than 100 µM, the GI50 [39] was greater than 100 µM and the TGI [39] was greater than 100 µM. For the same compound, the GI50 [40] was 39.7 µM, the TGI [40] was greater than 100 µM and the GI50 [41] was 62.4 µM. For the same compound, the TGI [41] was greater than 100 µM, the GI50 [42] was 39.2 µM and the TGI [42] was greater than 100 µM. The GI50 [43] was 41.4 µM, the TGI [43] was greater than 100 µM and the GI50 [44] was 89.3 µM. For the same compound, the TGI [44] was greater than 100 µM, the GI50 [45] was 36.2 µM and the TGI [45] was greater than 100 µM. It also gave a GI50 [46] greater than 100 µM, a TGI [46] greater than 100 µM and a GI50 [47] greater than 100 µM. It also gave a TGI [47] greater than 100 µM, a GI50 [48] of 48 µM and a TGI [48] greater than 100 µM. For the same compound, the GI50 [49] was greater than 100 µM, the TGI [49] was greater than 100 µM and the GI50 [50] was 98.2 µM. For the same compound, the TGI [50] was greater than 100 µM, the GI50 [51] was 46.4 µM and the TGI [51] was greater than 100 µM. For the same compound, the GI50 [52] was 45.3 µM, the TGI [52] was greater than 100 µM and the GI50 [53] was 74.3 µM. The TGI [53] was greater than 100 µM, the GI50 [54] was 42.2 µM and the TGI [54] was greater than 100 µM. The GI50 [55] was 44.3 µM, the TGI [55] was greater than 100 µM and the GI50 [56] was greater than 100 µM. It also gave a TGI [56] greater than 100 µM, a GI50 [57] of 44.4 µM and a TGI [57] greater than 100 µM. For the same compound, the GI50 [58] was 41.4 µM and the TGI [58] was greater than 100 µM.
